# Source: BindingDB's records for doi:10.1111/j.1747-0285.2010.01011.x (University of Mainz, 2010)
# Target: 5-hydroxytryptamine receptor 2A (Homo sapiens, UniProt P28223)
# Assay: Competition Binding Assay
# Details: pH 7.4; 37 °C
# Method: 5-HT-2A receptor affinity was determined by a radioligand competition binding assay with GF-62 cells, a clonal cell line expressing high amounts of 5-HT-2A receptors.
# Sequence of 5-hydroxytryptamine receptor 2A (P28223 whole entry): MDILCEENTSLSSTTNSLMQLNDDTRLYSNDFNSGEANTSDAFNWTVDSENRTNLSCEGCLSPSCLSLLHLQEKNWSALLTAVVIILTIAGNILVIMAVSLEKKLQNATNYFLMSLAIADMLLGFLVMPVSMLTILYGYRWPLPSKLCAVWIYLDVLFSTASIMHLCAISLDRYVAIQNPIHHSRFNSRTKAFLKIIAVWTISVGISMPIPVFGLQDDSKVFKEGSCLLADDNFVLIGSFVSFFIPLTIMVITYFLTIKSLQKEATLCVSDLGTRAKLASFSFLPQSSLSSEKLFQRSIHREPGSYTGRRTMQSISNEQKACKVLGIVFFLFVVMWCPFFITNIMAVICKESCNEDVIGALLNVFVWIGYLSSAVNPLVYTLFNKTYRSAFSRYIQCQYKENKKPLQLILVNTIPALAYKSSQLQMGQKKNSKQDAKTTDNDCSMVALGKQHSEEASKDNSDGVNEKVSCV
row,Ki [nM],SMILES
1,356,"COc1c(OCCF)cccc1C(O)C1CCN(CCn2c(=S)[nH]c3ccccc3c2=O)CC1 (centres undefined) [3-[2-(4-{[3-(2-fluoroethoxy)-2-methoxyphenyl](hydroxy)methyl}piperidin-1-yl)ethyl]-2-sulfanylidene-1,2,3,4-tetrahydroquinazolin-4-one, 4c]"
2,411,"COc1cccc(C(=O)C2CCN(CCn3c(=S)[nH]c4ccccc4c3=O)CC2)c1OC [3-(2-{4-[(2,3-dimethoxyphenyl)carbonyl]piperidin-1-yl}ethyl)-2-sulfanylidene-1,2,3,4-tetrahydroquinazolin-4-one, 4a]"
3,57,"COc1c(OCCF)cccc1/C(=N/OCCN(C)C)C1CCN(CCc2ccc(F)cc2)CC1 [(E)-[2-(dimethylamino)ethoxy]({[3-(2-fluoroethoxy)-2-methoxyphenyl]({1-[2-(4-fluorophenyl)ethyl]piperidin-4-yl})methylidene})amine, 8]"
4,390,"COc1cccc(C(O)C2CCN(CCn3c(=S)[nH]c4ccccc4c3=O)CC2)c1OC (centres undefined) [3-(2-{4-[(2,3-dimethoxyphenyl)(hydroxy)methyl]piperidin-1-yl}ethyl)-2-sulfanylidene-1,2,3,4-tetrahydroquinazolin-4-one, 4b]"
